This note sets out measurements from US12539292B2, “BRM targeting compounds and associated methods of use” (Arvinas Operations, Inc., priority 2018, dated 2026).

Like-named read-outs stand apart in the source and are kept apart here.

For this experiment, the target named is T1, BRM (Homo sapiens, UniProt P51531).
T1 construct: In-Cell Western Screen of BRM Degradation in SW1573 Cells; endogenous in cells; host or cells: SW1573
In words: In-cell Western screen of BRM degradation in SW1573 cells (Dmax and DC50). The class given is cell-based. A digest of the protocol: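 SW1573 cells were treated overnight (18-20 hours) with compound at 0.1% final DMSO. They were then PFA-fixed, permeabilised with Triton X-100 and immunostained with 800 nm/680 nm secondary antibodies. BRM signal was quantified by LI-COR in-cell Western imaging to derive Dmax and DC50.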

[1] abbreviates: BRM degradation, SW1573 cells, read-out: DC50.
Setting [2] is: BRM degradation, SW1573 cells, when tested at the top concentration of between 0.3 and 10 μM, read-out: Dmax (%) (% degraded).
Where [3] appears, read: degradation of BRM, read-out: BRM DC50.
Setting [4] is: BRM degradation, SW1573 cells, Table 2D, read-out: *DC50.
Setting [5] is: BRM degradation, SW1573 cells, Table 2D, read-out: **Dmax (%) (% degraded).

T1 sequence (P51531 whole entry): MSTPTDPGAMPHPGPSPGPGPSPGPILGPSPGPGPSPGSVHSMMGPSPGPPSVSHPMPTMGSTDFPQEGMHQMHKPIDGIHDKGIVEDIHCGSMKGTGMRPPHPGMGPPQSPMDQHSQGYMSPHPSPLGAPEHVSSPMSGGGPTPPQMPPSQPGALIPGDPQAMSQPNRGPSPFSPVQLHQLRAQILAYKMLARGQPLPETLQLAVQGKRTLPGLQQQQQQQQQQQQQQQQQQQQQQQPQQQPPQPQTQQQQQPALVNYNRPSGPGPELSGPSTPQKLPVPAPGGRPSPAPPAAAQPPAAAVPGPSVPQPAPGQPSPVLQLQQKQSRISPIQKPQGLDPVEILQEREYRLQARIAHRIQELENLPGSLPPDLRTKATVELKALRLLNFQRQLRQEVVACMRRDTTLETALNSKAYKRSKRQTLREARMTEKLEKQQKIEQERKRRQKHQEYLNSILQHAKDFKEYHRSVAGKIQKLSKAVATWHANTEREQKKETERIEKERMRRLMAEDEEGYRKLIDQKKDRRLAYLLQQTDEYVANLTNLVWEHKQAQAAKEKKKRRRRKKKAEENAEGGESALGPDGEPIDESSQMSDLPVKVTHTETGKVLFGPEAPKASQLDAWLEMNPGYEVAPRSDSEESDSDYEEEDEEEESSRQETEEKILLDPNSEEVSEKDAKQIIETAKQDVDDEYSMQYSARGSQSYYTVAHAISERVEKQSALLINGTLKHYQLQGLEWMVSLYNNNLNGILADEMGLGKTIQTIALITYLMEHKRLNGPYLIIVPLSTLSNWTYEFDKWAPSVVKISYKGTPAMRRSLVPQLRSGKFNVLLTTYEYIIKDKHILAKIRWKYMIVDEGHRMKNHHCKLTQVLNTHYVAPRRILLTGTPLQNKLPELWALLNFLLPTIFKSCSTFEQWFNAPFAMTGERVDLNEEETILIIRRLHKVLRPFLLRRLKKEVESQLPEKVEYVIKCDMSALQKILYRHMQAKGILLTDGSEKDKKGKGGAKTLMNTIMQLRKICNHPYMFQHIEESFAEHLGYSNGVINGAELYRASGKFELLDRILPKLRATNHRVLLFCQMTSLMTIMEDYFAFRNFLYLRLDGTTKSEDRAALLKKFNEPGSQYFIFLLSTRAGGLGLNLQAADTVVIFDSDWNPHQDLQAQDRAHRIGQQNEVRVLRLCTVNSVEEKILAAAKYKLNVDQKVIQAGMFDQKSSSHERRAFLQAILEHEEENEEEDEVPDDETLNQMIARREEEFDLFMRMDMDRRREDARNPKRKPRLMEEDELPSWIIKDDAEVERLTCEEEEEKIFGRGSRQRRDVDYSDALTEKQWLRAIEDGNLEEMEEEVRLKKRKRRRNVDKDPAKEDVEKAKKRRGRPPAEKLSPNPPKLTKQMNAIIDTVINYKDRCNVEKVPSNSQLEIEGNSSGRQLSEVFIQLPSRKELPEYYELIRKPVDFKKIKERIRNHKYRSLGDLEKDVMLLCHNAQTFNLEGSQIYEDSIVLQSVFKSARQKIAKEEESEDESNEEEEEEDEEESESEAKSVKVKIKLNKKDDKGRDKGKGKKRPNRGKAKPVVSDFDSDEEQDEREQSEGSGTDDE

Regarding `Cc1ncsc1-c1ccc([C@@H](NC(=O)[C@@H]2C[C@@H](O)CN2C(=O)[C@@H](c2cc(OCCN3CCN(CCOc4cc(N5C6CCC5CN(c5cc(-c7ccccc7O)nnc5N)C6)ccn4)CC3)no2)C(C)C)C(=O)N(C)C)cc1` [compound 131, (2S,4R)-1-((2R)-2-(3-(2-(4-(2-((4-(3-(3-amino-6-(2-hydroxyphenyl)pyridazin-4-yl)-3,8-diazabicyclo[3.2.1]octan-8-yl)pyridin-2-yl)oxy)ethyl)piperazin-1-yl)ethoxy)isoxazol-5-yl)-3-methylbutanoyl)-N-((R)-2-(dimethylamino)-1-(4-(4-methylthiazol-5-yl)phenyl)-2-oxoethyl)-4-hydroxypyrrolidine-2-carboxamide], the DC50 under setting [1] is under 2.5 nM. For the same compound, the Dmax under setting [2] is over 75%. For `Cc1ncsc1-c1ccc(CNC(=O)[C@@H]2C[C@@H](O)CN2C(=O)[C@H](c2cc(OCCOCCOCCCCN3CCOC4(CCN(c5cc(-c6ccccc6O)nnc5N)CC4)C3)no2)C(C)C)cc1` [compound 36, (2S,4R)-1-[(2S)-2-(3-[2-[2-(4-[9-[3-amino-6-(2-hydroxyphenyl)pyridazin-4-yl]-1-oxa-4,9-diazaspiro[5.5]undecan-4-yl]butoxy)ethoxy]ethoxy]-1,2-oxazol-5-yl)-3-methylbutanoyl]-4-hydroxy-N-[[4-(4-methyl-1,3-thiazol-5-yl)phenyl]methyl]pyrrolidine-2-carboxamide], under setting [1], the DC50 was over 30 nM. Also, under setting [2], the Dmax was 50 to 75%. `Cc1nccn1-c1ccc([C@H](C)NC(=O)[C@@H]2C[C@@H](O)CN2C(=O)[C@H](c2cc(N3CCN(CCN4CCC(O[C@H]5C[C@H](Oc6cc(N7C8CCC7CN(c7cc(-c9ccccc9O)nnc7N)C8)ccn6)C5)CC4)CC3)no2)C(C)C)cc1` [compound 412, (2S,4R)-1-((2S)-2-(3-(4-(2-(4-((1r,3r)-3-((4-(3-(3-amino-6-(2-hydroxyphenyl)pyridazin-4-yl)-3,8-diazabicyclo[3.2.1]octan-8-yl)pyridin-2-yl)oxy)cyclobutoxy)piperidin-1-yl)ethyl)piperazin-1-yl)isoxazol-5-yl)-3-methylbutanoyl)-4-hydroxy-N-((S)-1-(4-(2-methyl-1 H-imidazol-1-yl)phenyl)ethyl)pyrrolidine-2-carboxamide]: under setting [3], the DC50 is over 30 nM. Regarding `Cc1ncsc1-c1ccc([C@H](CCCC(N)=O)NC(=O)[C@@H]2C[C@@H](O)CN2C(=O)[C@H](c2cc(OCCN3CCC(O[C@H]4C[C@H](Oc5cc(N6C7CCC6CN(c6cc(-c8ccccc8O)nnc6N)C7)ccn5)C4)CC3)no2)C(C)C)cc1` [compound 555, (2S,4R)-N-((S)-5-amino-1-(4-(4-methylthiazol-5-yl)phenyl)-5-oxopentyl)-1-((2S)-2-(3-(2-(4-((1r,3S)-3-((4-(3-(3-amino-6-(2-hydroxyphenyl)pyridazin-4-yl)-3,8-diazabicyclo[3.2.1]octan-8-yl)pyridin-2-yl)oxy)cyclobutoxy)piperidin-1-yl)ethoxy)isoxazol-5-yl)-3-methylbutanoyl)-4-hydroxypyrrolidine-2-carboxamide], the DC50 under setting [4] was over 30 nM.

Regarding `Cc1ncsc1-c1ccc([C@H](C)NC(=O)[C@@H]2C[C@@H](O)CN2C(=O)[C@H](c2cc(OCCC3(O)CCN(C[C@H]4C[C@H](Oc5cc(N6C7CC[C@@H]6CN(c6cc(-c8ccccc8O)nnc6N)C7)ccn5)C4)CC3)no2)C(C)C)cc1` [compound 435, (2S,4R)-1-((2S)-2-(3-(2-(1-(((1r,3S)-3-((4-(3-(3-amino-6-(2-hydroxyphenyl)pyridazin-4-yl)-3,8-diazabicyclo[3.2.1]octan-8-yl)pyridin-2-yl)oxy)cyclobutyl)methyl)-4-hydroxypiperidin-4-yl)ethoxy)isoxazol-5-yl)-3-methylbutanoyl)-4-hydroxy-N-((S)-1-(4-(4-methylthiazol-5-yl)phenyl)ethyl)pyrrolidine-2-carboxamide], where the note is “% degraded, when tested at the top concentration of between 0.3 and 10 μM”, the “BRM Dmax (%)” value is recorded as “A (A > 75)”. For the same compound, the DC50 under setting [3] is under 2.5 nM. Turning to `Cc1ncsc1-c1ccc([C@H](C)NC(=O)[C@@H]2C[C@@H](O)CN2C(=O)[C@@H](c2cc(OCCN3CC[C@H](OCCc4cc(N5C6CCC5CN(c5cc(-c7ccccc7O)nnc5N)C6)ccn4)C[C@@H]3C)no2)C(C)C)cc1` (racemic) [compound 568, (2S,4R)-1-((2R)-2-(3-(2-((2S,4S)-4-(2-(4-(3-(3-amino-6-(2-hydroxyphenyl)pyridazin-4-yl)-3,8-diazabicyclo[3.2.1]octan-8-yl)pyridin-2-yl)ethoxy)-2-methylpiperidin-1-yl)ethoxy)isoxazol-5-yl)-3-methylbutanoyl)-4-hydroxy-N-((S)-1-(4-(4-methylthiazol-5-yl)phenyl)ethyl)pyrrolidine-2-carboxamide], under setting [5], the Dmax was over 75%. Further, the DC50 under setting [4] was under 2.5 nM. As for `Cc1ncsc1-c1ccc([C@H](C)NC(=O)[C@@H]2C[C@@H](O)CN2C(=O)[C@H](c2cc(OCC[C@@H]3CCN(C[C@H]4C[C@H](Oc5cc(N6C7CCC6CN(c6cc(-c8ccccc8O)nnc6N)C7)ccn5)C4)[C@H](C)C3)no2)C(C)C)cc1` (racemic) [compound 579, (2S,4R)-1-((2S)-2-(3-(2-((2R,4R)-1-(((1r,3R)-3-((4-(3-(3-amino-6-(2-hydroxyphenyl)pyridazin-4-yl)-3,8-diazabicyclo[3.2.1]octan-8-yl)pyridin-2-yl)oxy)cyclobutyl)methyl)-2-methylpiperidin-4-yl)ethoxy)isoxazol-5-yl)-3-methylbutanoyl)-4-hydroxy-N-((S)-1-(4-(4-methylthiazol-5-yl)phenyl)ethyl)pyrrolidine-2-carboxamide], under setting [5], the greatest degradation seen (Dmax) is over 75%. Also, the DC50 under setting [4] was under 2.5 nM. For `Cc1ncsc1-c1ccc([C@H](C)NC(=O)[C@@H]2C[C@@H](O)CN2C(=O)[C@@H](c2cc(OCCN3CCC(O[C@H]4C[C@H](C#CCn5cc(-c6cc(-c7ccccc7O)nnc6N)cn5)C4)CC3)no2)C(C)C)cc1` [compound 238, (2S,4R)-1-((R)-2-(3-(2-(4-((1r,3R)-3-(3-(4-(3-amino-6-(2-hydroxyphenyl)pyridazin-4-yl)-1H-pyrazol-1-yl)prop-1-yn-1-yl)cyclobutoxy)piperidin-1-yl)ethoxy)isoxazol-5-yl)-3-methylbutanoyl)-4-hydroxy-N-((S)-1-(4-(4-methylthiazol-5-yl)phenyl)ethyl)pyrrolidine-2-carboxamide], the half-maximal degradation concentration (DC50) under setting [1] is under 2.5 nM. Besides, under “BRM degradation, SW1573 cells, tested at the top concentration of between 0.3 and 10 μM, read-out: Dmax (%) (% degraded)”, the Dmax was over 75%. `Cc1ncsc1-c1ccc([C@H](C)NC(=O)[C@@H]2C[C@@H](O)CN2C(=O)[C@@H](c2cc(OCCN3CCN(CC#CCn4cc(-c5cc(-c6ccccc6O)nnc5N)cn4)CC3)no2)C(C)C)cc1` [compound 113, (2S,4R)-1-((R)-2-(3-(2-(4-(4-(4-(3-amino-6-(2-hydroxyphenyl)pyridazin-4-yl)-1H-pyrazol-1-yl)but-2-yn-1-yl)piperazin-1-yl)ethoxy)isoxazol-5-yl)-3-methylbutanoyl)-4-hydroxy-N-((S)-1-(4-(4-methylthiazol-5-yl)phenyl)ethyl)pyrrolidine-2-carboxamide]: the DC50 under setting [1] was under 2.5 nM. For the same compound, the Dmax under setting [2] was over 75%.

Regarding `Cc1ncsc1-c1ccc([C@H](C)NC(=O)[C@@H]2C[C@@H](O)CN2C(=O)[C@@H](c2cc(OCC[C@@H]3CCN(C[C@H]4C[C@H](Oc5cc(N6C7CCC6CN(c6cc(-c8ccccc8O)nnc6N)C7)ccn5)C4)C[C@H]3C)no2)C(C)C)cc1` (racemic) [compound 546, (2S,4R)-1-((2R)-2-(3-(2-((3S,4S)-1-(((1r,3S)-3-((4-(3-(3-amino-6-(2-hydroxyphenyl)pyridazin-4-yl)-3,8-diazabicyclo[3.2.1]octan-8-yl)pyridin-2-yl)oxy)cyclobutyl)methyl)-3-methylpiperidin-4-yl)ethoxy)isoxazol-5-yl)-3-methylbutanoyl)-4-hydroxy-N-((S)-1-(4-(4-methylthiazol-5-yl)phenyl)ethyl)pyrrolidine-2-carboxamide], the Dmax under setting [5] is over 75%. The DC50 under setting [4] is under 2.5 nM.

In the case of `Cc1cc([C@@H](C(=O)N2C[C@H](O)C[C@H]2C(=O)N[C@@H](C)c2ccc(-c3scnc3C)cc2)[C@H](C)COCCCn2cc(-c3cc(-c4ccccc4O)nnc3N)cn2)on1` [compound 559, (2S,4R)-1-((2S,3S)-4-(3-(4-(3-amino-6-(2-hydroxyphenyl)pyridazin-4-yl)-1H-pyrazol-1-yl)propoxy)-3-methyl-2-(3-methylisoxazol-5-yl)butanoyl)-4-hydroxy-N-((S)-1-(4-(4-methylthiazol-5-yl)phenyl)ethyl)pyrrolidine-2-carboxamide], the DC50 under setting [4] was over 30 nM. In the case of `Cc1ncsc1-c1ccc(CNC(=O)[C@@H]2C[C@@H](O)CN2C(=O)[C@@H](c2cc(OCCN3CCN(CCOc4cc(N5C6CCC5CN(c5cc(-c7ccccc7O)nnc5N)C6)ccn4)CC3)no2)C(C)C)cc1` [compound 42, (2S,4R)-1-[(2R)-2-[3-[2-(4-[2-[(4-[3-[3-amino-6-(2-hydroxyphenyl)pyridazin-4-yl]-3,8-diazabicyclo[3.2.1]octan-8-yl]pyridin-2-yl)oxy]ethyl]piperazin-1-yl)ethoxy]-1,2-oxazol-5-yl]-3-methylbutanoyl]-4-hydroxy-N-[[4-(4-methyl-1,3-thiazol-5-yl)phenyl]methyl]pyrrolidine-2-carboxamide], the DC50 under setting [1] is under 2.5 nM. For the same compound, under setting [2], the Dmax was over 75%.

As for `Cc1ncsc1-c1ccc(CNC(=O)[C@@H]2C[C@@H](O)CN2C(=O)[C@H](c2cc(OCCOCCOCCn3cc(-c4cc(-c5ccccc5O)nnc4N)cn3)no2)C(C)C)cc1` [compound 14, (2S,4R)-1-[(2S)-2-(3-[2-[2-(2-[4-[3-amino-6-(2-hydroxyphenyl)pyridazin-4-yl]-1H-pyrazol-1-yl]ethoxy)ethoxy]ethoxy]-1,2-oxazol-5-yl)-3-methylbutanoyl]-4-hydroxy-N-[[4-(4-methyl-1,3-thiazol-5-yl)phenyl]methyl]pyrrolidine-2-carboxamide], the Dmax under setting [2] is under 50%.
